The values that follow come from US6716880B2, “Compounds for the treatment of estrogen-dependent illnesses and methods for making and using the same” (Duquesne University of the Holy Ghost, priority 1998, dated 2004).

For test [1], the target named is T1, estrone sulfatase (Rattus norvegicus, UniProt P15589).
T1 construct: using rat liver microcosm as a source of sulfatase; from tissue; host or cells: rat liver microsomal fraction (juvenile female Sprague-Dawley rats)
T1 sequence (P15589 20-577): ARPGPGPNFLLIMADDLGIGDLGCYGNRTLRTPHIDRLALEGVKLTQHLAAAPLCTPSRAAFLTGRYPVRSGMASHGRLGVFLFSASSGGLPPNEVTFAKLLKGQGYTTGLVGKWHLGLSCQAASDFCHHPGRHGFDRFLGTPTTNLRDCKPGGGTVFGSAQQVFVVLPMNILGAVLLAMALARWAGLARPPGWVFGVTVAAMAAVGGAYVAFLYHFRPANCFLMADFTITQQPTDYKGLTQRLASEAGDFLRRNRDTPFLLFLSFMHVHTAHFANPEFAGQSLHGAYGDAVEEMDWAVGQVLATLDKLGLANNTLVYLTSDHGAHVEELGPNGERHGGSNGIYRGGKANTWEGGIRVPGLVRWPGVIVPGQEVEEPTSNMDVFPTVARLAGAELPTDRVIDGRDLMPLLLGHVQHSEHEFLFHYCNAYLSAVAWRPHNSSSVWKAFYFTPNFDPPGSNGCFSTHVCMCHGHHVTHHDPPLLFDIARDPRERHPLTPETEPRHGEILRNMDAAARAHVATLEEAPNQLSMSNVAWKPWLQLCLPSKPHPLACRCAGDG
The experiment in a line: Rat liver microsome sulfatase assay (Lineweaver-Burk). Format: biochemical. As to conditions: rat liver microsomes.
Procedure: Livers, obtained from juvenile female Sprague-Dawley rats, were minced with scissors in ice-cold 0.25M Tris-sucrose buffer (1:2 w:v) and homogenized with a Tissue Tearor using three 30 sec bursts. The nuclear fraction was pelleted by centrifugation at 1500×g for 15 min at 4° C. The supernatant was decanted and centrifuged at 10,000×g for 30 min at 4° C. to pellet the mitochondrial fraction. The resulting supernatant was removed and centrifuged at 100,000×g to yield the microsomal fraction. The microsomal pellet was resuspended in 50 mM Tris-HCl buffer (1:5 w:v) and protein from the microsomal suspension was determined by using the BCA assay.
^3H-estrone sulfate (53 Ci/mmol) was diluted in 50 mM Tris-HCl buffer and 50 μl (140,000 dpm) of the solution were added to all assay tubes. Radioinert estrone sulfate was dissolved in ethanol and then diluted into 50 mM Tris-HCl buffer. To achieve final concentrations of estrone sulfate, 100 μl of desired concentrations were added to the assay tubes. Compounds prepared according to Example 1 were dissolved in ethanol and then diluted in 50 mM Tris-HCl buffer. […] Product formation for samples containing an inhibitor was compared to that of the control samples, and data for Km and Ki were assessed through Michaelis Menten and Lineweaver-Burk calculations.

For test [2], the target named is T2, estrone sulfatase in MDA-MB-231 breast cancer cells (Homo sapiens, UniProt P08842).
T2 construct: using intact monolayers of MDA-MB-231 breast cancer cells; endogenous in cells; host or cells: MDA-MB-231 breast cancer cells
T2 sequence (P08842 22-583): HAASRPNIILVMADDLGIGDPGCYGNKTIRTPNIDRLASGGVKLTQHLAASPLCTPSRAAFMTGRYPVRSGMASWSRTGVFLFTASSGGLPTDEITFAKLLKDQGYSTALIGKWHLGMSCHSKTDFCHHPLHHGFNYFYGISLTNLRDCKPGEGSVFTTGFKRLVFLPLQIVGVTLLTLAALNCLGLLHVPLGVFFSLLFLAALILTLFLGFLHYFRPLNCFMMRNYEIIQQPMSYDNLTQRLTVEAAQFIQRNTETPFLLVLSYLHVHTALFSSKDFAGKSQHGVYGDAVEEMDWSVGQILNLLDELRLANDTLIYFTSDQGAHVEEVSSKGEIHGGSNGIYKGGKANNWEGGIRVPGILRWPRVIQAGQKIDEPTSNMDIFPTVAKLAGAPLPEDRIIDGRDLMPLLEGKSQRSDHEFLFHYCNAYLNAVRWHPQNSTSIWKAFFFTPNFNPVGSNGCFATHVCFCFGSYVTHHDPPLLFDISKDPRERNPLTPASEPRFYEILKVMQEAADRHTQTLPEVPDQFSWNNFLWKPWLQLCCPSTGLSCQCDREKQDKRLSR
Nature of the test: Intact breast cancer cell estrone sulfatase assay. It counts as cell-based. As to conditions: intact MDA-MB-231 cells, 18 h incubation. The method, then:
The ability of the compound prepared according to Example 1 to block hydrolysis of estrone sulfate was examined using intact monolayers of MDA-MB-231 breast cancer cells.
MDA-MB-231 cells were plated into 6-well dishes at approximately 1×10^6 cells/well in growth medium and incubated at 37° C. overnight to facilitate adherence to the plates. The growth medium contained 0.2% (v/v) sodium bicarbonate, 5% heat-inactivated fetal-calf serum, […] gentamicin, and 1% (v/v) antibiotic/antimycotic. Following incubation, growth medium was removed and replaced with growth medium containing ^3H-estrone sulfate (100,000 dpm/ml), with or without the compound of Example 1 (10 μM). Cells were incubated for 18 h, then plates were cooled for 15 min. Medium from each well (500 μL) was aliquoted into 16×100 mm tubes. Three mls of toluene were added to each tube for extraction of unconjugated steroids. The tubes were vortexed for 1 min and then centrifuged at 2500×g for 5 min to separate the aqueous and organic phases. One mL of the organic phase (containing radiolabeled unconjugated steroids) was transferred to scintillation vials and 5 ml scintillation cocktail was added. Total radioactivity was counted using a Packard Tri-carb scintillation counter at 50% efficiency for ^3H. All extractions were performed in duplicate and all treatments were run in triplicate. […]

Broadly, the Ki is the dissociation constant of the complex between target and ligand, obtained from inhibition or displacement. Lower therefore signals a stronger hold on the target. One may read the inhibition as the percentage by which the read-out fell short of the control.

`CC/C(=C(/c1ccc(OCCN(C)C)cc1)c1ccc(OS(N)(=O)=O)cc1)c1ccccc1` [tamoxifen sulfamate, (Z)-4-Hydroxytamoxifen Sulfamate] had an inhibition constant Ki in test [1] (double reciprocal plot, fixed inhibitor concentration 10 μM) of approximately 17 µM. For the same compound, the type of inhibition entry in test [1] (maximum velocity unchanged, Km increased) is “competitive inhibitor”. This compound displayed an inhibition at 10 µM in test [2] of approximately 50%.
